Non-standard residues stand in square brackets, D forms with d. Residues, ends and D or L forms follow the SMILES beside them. *: point of attachment. X2 = COC(=O)C(N*)c1ccccc1[N+](=O)[O-]; X3 = O=C(OCc1ccccc1[N+](=O)[O-])*; X1 = O=[N+]([O-])c1ccccc1CO*; Nle = CCCC[C@H](N)C(=O)O
Tests used:
[1] = Perfect off-state by site-specific incorporation of o-nitrobenzyl (o-NB) unit into RNase S' was determined before photolysis at 10 x E5 M/min
[2] = Perfect off-state by site-specific incorporation of o-nitrobenzyl (o-NB) unit into RNase S' was determined after photolysis at 10 x E5 M/min
[3] = Michaelis-Menten parameter(Kcat) value for the incorporation of photo-labile caged moiety into a proximity to the active site
[4] = Michaelis-Menten parameter(Km) value for the incorporation of photo-labile caged moiety into a proximity to the active site
[5] = Michaelis-Menten parameter value for the incorporation of photo-labile caged moiety into a proximity to the active site

Photolysis [1]	RNase S' enzyme activity [2]	k cat [3] [s⁻¹]	Km [4] [µM]	k cat [5] [s⁻¹]	Structure (SMILES)
0.96	0.81				CCCC[C@H](NC(=O)[C@H](Cc1c[nH]cn1)NC(=O)[C@H](CCC(N)=O)NC(=O)[C@H](CCCN=C(N)N)NC(=O)[C@H](CCC(=O)O)NC(=O)[C@H](Cc1ccccc1)NC(=O)[C@H](CCCCN)NC(=O)[C@H](C)NC(=O)[C@H](C)NC(=O)[C@H](C)NC(=O)[C@@H](NC(=O)[C@H](CCC(=O)OCc1ccccc1[N+](=O)[O-])NC(=O)[C@@H](N)CCCCN)[C@@H](C)O)C(=O)N[C@@H](CC(=O)O)C(=O)N[C@@H](CO)C(=O)O (H-KE(X1)TAAAKFERQH[Nle]DS-OH)
0.99	0.97				CCCC[C@H](NC(=O)[C@H](Cc1c[nH]cn1)NC(=O)[C@H](CCC(N)=O)NC(=O)[C@H](CCCN=C(N)N)NC(=O)[C@H](CCC(=O)OCc1ccccc1[N+](=O)[O-])NC(=O)[C@H](Cc1ccccc1)NC(=O)[C@H](CCCCN)NC(=O)[C@H](C)NC(=O)[C@H](C)NC(=O)[C@H](C)NC(=O)[C@@H](NC(=O)[C@H](CCC(=O)O)NC(=O)[C@@H](N)CCCCN)[C@@H](C)O)C(=O)N[C@@H](CC(=O)O)C(=O)N[C@@H](CO)C(=O)O (H-KETAAAKFE(X1)RQH[Nle]DS-OH)
0.29	0.78	0.054	1130		CCCC[C@H](NC(=O)[C@H](Cc1c[nH]cn1)NC(=O)[C@H](CCC(N)=O)NC(=O)[C@H](CCCN=C(N)N)NC(=O)[C@H](CCC(=O)O)NC(=O)[C@H](Cc1ccccc1)NC(=O)[C@H](CCCCN)NC(=O)[C@H](C)NC(=O)[C@H](C)NC(=O)[C@H](C)NC(=O)[C@@H](NC(=O)[C@H](CCC(=O)O)NC(=O)[C@@H](N)CCCCN)[C@@H](C)O)C(=O)N[C@@H](CC(=O)OCc1ccccc1[N+](=O)[O-])C(=O)N[C@@H](CO)C(=O)O (H-KETAAAKFERQH[Nle]D(X1)S-OH)

The remaining lines, values behind:

Structure (SMILES)	Photolysis [1]	RNase S' enzyme activity [2]	k cat [3] [s⁻¹]	Km [4] [µM]	k cat [5] [s⁻¹]
CCCC[C@H](NC(=O)[C@H](Cc1c[nH]cn1)NC(=O)[C@H](CCC(N)=O)NC(=O)[C@H](CCCN=C(N)N)NC(=O)[C@H](CCC(=O)O)NC(=O)[C@H](Cc1ccccc1)NC(=O)[C@H](CCCCN)NC(=O)[C@H](C)NC(=O)[C@H](C)NC(=O)[C@H](C)NC(=O)[C@@H](NC(=O)[C@H](CCC(=O)O)NC(=O)[C@@H](N)CCCCNC(=O)OCc1ccccc1[N+](=O)[O-])[C@@H](C)O)C(=O)N[C@@H](CC(=O)O)C(=O)N[C@@H](CO)C(=O)O (H-K(X3)ETAAAKFERQH[Nle]DS-OH)	1.01	1.04			
CCCC[C@H](NC(=O)[C@H](Cc1c[nH]cn1)NC(=O)[C@H](CCC(N)=O)NC(=O)[C@H](CCCN=C(N)N)NC(=O)[C@H](CCC(=O)O)NC(=O)[C@H](Cc1ccccc1)NC(=O)[C@H](CCCCNC(=O)OCc1ccccc1[N+](=O)[O-])NC(=O)[C@H](C)NC(=O)[C@H](C)NC(=O)[C@H](C)NC(=O)[C@@H](NC(=O)[C@H](CCC(=O)O)NC(=O)[C@@H](N)CCCCN)[C@@H](C)O)C(=O)N[C@@H](CC(=O)O)C(=O)N[C@@H](CO)C(=O)O (H-KETAAAK(X3)FERQH[Nle]DS-OH)	1.1	1.04			
CCCC[C@H](NC(=O)[C@H](Cc1c[nH]cn1)NC(=O)[C@H](CCC(=O)NC(C(=O)OC)c1ccccc1[N+](=O)[O-])NC(=O)[C@H](CCCN=C(N)N)NC(=O)[C@H](CCC(=O)O)NC(=O)[C@H](Cc1ccccc1)NC(=O)[C@H](CCCCN)NC(=O)[C@H](C)NC(=O)[C@H](C)NC(=O)[C@H](C)NC(=O)[C@@H](NC(=O)[C@H](CCC(=O)O)NC(=O)[C@@H](N)CCCCN)[C@@H](C)O)C(=O)N[C@@H](CC(=O)O)C(=O)N[C@@H](CO)C(=O)O (stereo partly specified) (H-KETAAAKFERE(X2)H[Nle]DS-OH)	0	0.37			
CCCC[C@H](NC(=O)[C@H](Cc1c[nH]cn1)NC(=O)[C@H](CCC(N)=O)NC(=O)[C@H](CCCN=C(N)N)NC(=O)[C@H](CCC(=O)O)NC(=O)[C@H](Cc1ccccc1)NC(=O)[C@H](CCCCN)NC(=O)[C@H](C)NC(=O)[C@H](C)NC(=O)[C@H](C)NC(=O)[C@@H](NC(=O)[C@H](CCC(=O)O)NC(=O)[C@@H](N)CCCCN)[C@@H](C)O)C(=O)N[C@@H](CC(=O)O)C(=O)N[C@@H](CO)C(=O)O (H-KETAAAKFERQH[Nle]DS-OH)	1.02				0.0678

— ChEMBL document CHEMBL1136413, “Caged RNase: photoactivation of the enzyme from perfect off-state by site-specific incorporation of 2-nitrobenzyl moiety” (Bioorg Med Chem Lett, 2003)
